Measurements published in article PMC12475174 (Scientific Reports, 2025).
Marks after values point to notes of the source that are not given here.

Columns and labels:
[1] = test system: Allium cepa root meristem cells; experiment: Chromosomal abnormality, MN and mitotic index test; format: in vivo; conditions: 0.0714 mg/L, 72 h germination
[2] = test system: Allium cepa root meristem cells; experiment: Comet assay; format: in vivo; conditions: 0.0714 mg/L, 72 h germination

[N-]=[N+]=[N-].[Na+] [NaN3, sodium azide]
Binuclear cell ([1]; 1.000 cells per group): 71.9 ± 3.95^a
Bridge ([1]; 1.000 cells per group): 48.3 ± 4.20^a
Disorientation ([1]; 1.000 cells per group): 56.4 ± 4.16^a
Fragment ([1]; 1.000 cells per group): 34.9 ± 3.59^a
Micronucleus ([1]; 1.000 cells per group): 75.7 ± 8.27^a
Nucleus bud ([1]; 1.000 cells per group): 41.0 ± 3.81^a
Sticky chromosome ([1]; 1.000 cells per group): 72.7 ± 4.74^a
Unequal distribution of chromatin ([1]; 1.000 cells per group): 51.5 ± 3.72^a
Vagrant chromosome ([1]; 1.000 cells per group): 67.7 ± 3.82^a
Micronucleus ([1]; 1.000 cells per group, listed as NaN₃): 75.7 ± 8.27
Mitotic index (%) ([1]; 10.000 cells per group): 6.75%
Mitotic index: number of dividing cells ([1]; 10.000 cells per group): 675 ± 11.2
Head DNA (%) [2]: 25.0 ± 1.35^e %
Head density [2]: 75.475
Head diameter (px) [2]: 8.000 px
Tail DNA (%) [2]: 75.0 ± 1.35^a %
Tail density [2]: 196.278
Tail length (px) [2]: 72.000 px
Tail moment [2]: 53.981
Tail DNA (%) ([2]; listed as NaN₃): 75.0 ± 1.35%
